In publication PMC3914206:

How the values were obtained:
Assay type in all cases: binding
Settings in all cases: Compound Concentration 10 µM
[1] = biological target: T1, panel of 442 kinases (Homo sapiens, UniProt P49840)
T1 construct: purchased KINOMEscan
Text: (§1) We assessed the selectivity of members of this scaffold using the KINOMEscan methodology across a near comprehensive panel of 442 kinases [[18,27]].

[2] = biological target: T2, panel of 442 kinases (Homo sapiens, UniProt P51451)
T2 construct: purchased KINOMEscan
Text: as §1

[3] = biological target: T3, panel of 442 kinases (Homo sapiens, UniProt Q16539)
T3 construct: purchased KINOMEscan
Text: as §1

[4] = biological target: T4, panel of 442 kinases (Homo sapiens, UniProt Q9H4B4)
T4 construct: purchased KINOMEscan
Text: as §1

T2 sequence (P51451 whole entry): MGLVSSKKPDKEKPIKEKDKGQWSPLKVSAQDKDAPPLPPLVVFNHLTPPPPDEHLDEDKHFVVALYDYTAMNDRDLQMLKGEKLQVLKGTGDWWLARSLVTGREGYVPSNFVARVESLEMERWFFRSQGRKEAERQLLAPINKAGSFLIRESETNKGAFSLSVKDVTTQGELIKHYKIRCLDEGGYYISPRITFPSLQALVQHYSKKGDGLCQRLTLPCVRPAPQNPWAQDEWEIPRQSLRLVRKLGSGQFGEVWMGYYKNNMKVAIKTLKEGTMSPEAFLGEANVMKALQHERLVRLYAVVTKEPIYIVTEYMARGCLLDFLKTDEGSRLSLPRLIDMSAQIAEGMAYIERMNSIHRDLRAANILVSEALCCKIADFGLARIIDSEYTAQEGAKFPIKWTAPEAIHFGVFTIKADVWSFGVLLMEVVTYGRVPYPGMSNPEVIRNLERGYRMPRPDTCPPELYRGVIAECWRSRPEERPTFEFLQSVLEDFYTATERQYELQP
T1 sequence (P49840 whole entry): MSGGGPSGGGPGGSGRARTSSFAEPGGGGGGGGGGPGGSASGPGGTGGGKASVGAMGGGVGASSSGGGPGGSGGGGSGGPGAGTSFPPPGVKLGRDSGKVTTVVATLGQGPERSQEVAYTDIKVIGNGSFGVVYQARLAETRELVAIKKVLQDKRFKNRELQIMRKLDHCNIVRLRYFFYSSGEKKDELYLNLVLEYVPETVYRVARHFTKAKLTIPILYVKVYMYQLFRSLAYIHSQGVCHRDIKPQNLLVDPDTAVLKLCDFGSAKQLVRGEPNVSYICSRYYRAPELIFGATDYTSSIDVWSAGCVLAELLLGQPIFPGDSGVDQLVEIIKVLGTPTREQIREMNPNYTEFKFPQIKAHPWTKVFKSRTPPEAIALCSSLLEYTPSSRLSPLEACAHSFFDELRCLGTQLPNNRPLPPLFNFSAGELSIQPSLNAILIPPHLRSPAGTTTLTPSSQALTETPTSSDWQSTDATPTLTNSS
T4 sequence (Q9H4B4 whole entry): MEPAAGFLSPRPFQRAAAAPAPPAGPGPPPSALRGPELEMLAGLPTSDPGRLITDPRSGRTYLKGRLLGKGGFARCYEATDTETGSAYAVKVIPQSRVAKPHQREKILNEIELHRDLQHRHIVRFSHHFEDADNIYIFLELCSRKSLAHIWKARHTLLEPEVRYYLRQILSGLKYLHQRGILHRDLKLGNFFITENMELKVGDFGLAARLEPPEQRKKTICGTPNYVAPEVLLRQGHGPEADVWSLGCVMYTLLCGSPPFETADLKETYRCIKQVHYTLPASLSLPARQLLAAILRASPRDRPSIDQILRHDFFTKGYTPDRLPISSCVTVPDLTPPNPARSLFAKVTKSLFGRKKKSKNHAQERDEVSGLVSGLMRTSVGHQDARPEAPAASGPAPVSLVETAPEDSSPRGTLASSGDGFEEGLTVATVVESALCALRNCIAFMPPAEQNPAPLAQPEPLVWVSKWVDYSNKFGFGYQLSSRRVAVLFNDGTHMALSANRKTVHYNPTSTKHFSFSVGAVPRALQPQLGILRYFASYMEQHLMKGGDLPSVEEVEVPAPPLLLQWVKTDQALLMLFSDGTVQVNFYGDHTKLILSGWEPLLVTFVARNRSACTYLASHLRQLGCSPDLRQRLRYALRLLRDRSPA
T3 sequence (Q16539 whole entry): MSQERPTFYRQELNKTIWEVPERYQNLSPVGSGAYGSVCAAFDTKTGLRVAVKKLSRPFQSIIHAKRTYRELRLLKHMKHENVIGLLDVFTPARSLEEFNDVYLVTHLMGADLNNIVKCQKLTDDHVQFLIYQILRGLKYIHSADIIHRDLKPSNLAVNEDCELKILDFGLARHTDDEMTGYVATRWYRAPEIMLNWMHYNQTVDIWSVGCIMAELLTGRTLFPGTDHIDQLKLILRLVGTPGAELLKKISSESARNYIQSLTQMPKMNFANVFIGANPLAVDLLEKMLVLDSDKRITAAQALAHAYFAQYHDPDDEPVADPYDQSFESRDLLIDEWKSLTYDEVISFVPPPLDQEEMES

SMILES | KINOMEscan: GSK3A [1] | KINOMEscan: BLK [2] | KINOMEscan: p38-alpha [3] | KINOMEscan: PLK3 [4]
CCOc1cc(C(=O)N2CCC(N3CCN(C)CC3)CC2)ccc1Nc1ncc2c(n1)N(C1CCCC1)c1ccccc1C(=O)N2C [Compound 26] | 100 | 100 | 94 | 84
COc1cc(C(=O)N2CCC(N3CCN(C)CC3)CC2)ccc1Nc1ncc2c(n1)N(C1CCCC1)c1ccccc1C(=O)N2C [Compound 25, 11-cyclopentyl-2-((2-methoxy-4-(4-(4-methylpiperazin-1-yl)piperidine-1-carbonyl)phenyl)amino)-5-methyl-5H-benzo[e]pyrimido[5,4-b][1,4]diazepin-6(11H)-one] | 100 | 100 | 99 | 73
COc1cc(C(=O)N2CCC(N3CCN(C)CC3)CC2)ccc1Nc1ncc2c(n1)N1CCc3cccc(c31)C(=O)N2C [Compound 24] |  |  |  | 3.8
COc1cc(C(=O)N2CCC(N3CCN(C)CC3)CC2)ccc1Nc1ncc2c(n1)N(C)c1ccccc1C(=O)N2C [15 (LRRK2-IN-1)] | 100 | 97 | 87 | 51
